{
  "source": "patent US8815883B2",
  "about": "“Compounds and methods for inhibiting serotonin synthesis” (The Trustees of Columbia Unviersity in the City of New York, priority 2009, dated 2014)",
  "key": {"rb 5-HT1B receptors": {"biological_target": "rb 5-HT1B receptors (Oryctolagus cuniculus, UniProt P49144)", "sequence (P49144 whole entry)": "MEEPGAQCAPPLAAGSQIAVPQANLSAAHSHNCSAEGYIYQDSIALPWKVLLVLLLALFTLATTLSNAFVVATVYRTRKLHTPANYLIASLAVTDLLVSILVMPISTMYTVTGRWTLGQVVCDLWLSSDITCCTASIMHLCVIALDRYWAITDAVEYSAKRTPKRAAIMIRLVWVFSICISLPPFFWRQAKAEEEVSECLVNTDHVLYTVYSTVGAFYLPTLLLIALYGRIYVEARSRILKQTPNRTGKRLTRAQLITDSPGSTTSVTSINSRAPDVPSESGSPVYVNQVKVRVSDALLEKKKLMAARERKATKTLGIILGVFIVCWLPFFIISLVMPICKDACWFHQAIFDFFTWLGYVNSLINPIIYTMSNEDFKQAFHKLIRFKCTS", "conditions": "British Journal of Pharmacology (1997) 120, 153; cited from earlier work"}, "Lrp5−/− mice": {"tested_on": "Lrp5−/− mice", "experiment": "pCPA treatment of WT and Lrp5−/− mice: bone histomorphometry, serum serotonin, gut TPH1 and brain TPH2 expression", "assay_type": "in vivo", "conditions": "300 mg/kg pCPA intraperitoneally three times per week, from 3 weeks to 12 weeks of age", "procedure": "Consistent with the conclusion that the increase in serum serotonin level is responsible fully or partly for the bone phenotype of the Lrp5−/− mice is the discovery that pCPA, a serotonin synthesis inhibitor (Eldridge et al., 1981, Ann. Rev. Physiol. 43:121-135), prevented the appearance of the Lrp5−/− bone phenotype by decreasing serotonin production. WT and Lrp5−/− mice were treated with 300 mg/kg pCPA intraperitoneally three times per week, from 3 weeks to 12 weeks of age (FIG. 7A) and the changes in serum serotonin levels, TPH1 expression in gut and TPH2 expression in brain stem were analyzed. Bone histomorphometry was also performed. […] This rescue of the Lrp5 −/− phenotype was achieved by normalization of the gut TPH1 mRNA and of serum serotonin levels (FIGS. 7C and 7D).\nGeneration of Lrp5−/− (Kato et al., 2002, J. Cell Biol. 157:303-314) β-cateninfloxed/floxed (Glass et al., 2005, Dev. Cell 8:751-764), α1(I)collagen-cre transgenic (Dacquin et al., 2002, Dev. Dyn. 224:245-251) and Htt−/− (Ansorge et al., 2008, J. Neurosci. 28:199-207) mice were as described previously. Lrp5+/−;Htt+/− double heterozygous mice were generated by crossing Lrp5+/− and Htt+/− mice. Three week-old Wt or Lrp5−/− mice were administered pCPA on alternate days for 9 weeks by i.p. All animal protocols were approved by the Animal Care Committees of Columbia University.\nStatic histomorphometry measurements were performed as previously described in accordance with standard nomenclature, using the Osteomeasure Analysis System (Osteometrics, Inc) (Ducy et al., 2000, Cell 100:197-207). Four to 9 animals were assigned per group.\nSerotonin serum levels were quantified using immunoassay kits from Fitzgerald (Serotonin) and serotonin levels in the different regions of the brain were quantified by HPLC method as described previously (Mann et al., 1992, Arch. Gen. Psychiatry 49:442-446)."}, "Cyclin D1 mouse promoter": {"tested_on": "Cyclin D1 mouse promoter", "experiment": "ChIP analysis of CREB binding to the Cyclin D1 promoter in primary osteoblasts treated with serotonin", "assay_type": "cell-based", "procedure": "(§1) Decreased expression of Cyclin D1 is a major feature of both Lrp5 deficiency and serotonin treatment of osteoblasts (FIGS. 1 and 8). One transcription factor that is known to modulate the expression of cyclin genes and is expressed in osteoblasts is CREB (Fu et al., 2005, Cell 122:803-815). Therefore, whether serotonin could decrease CREB activity in these cells was tested. […] Furthermore, a CREB binding site in the Cyclin D1 mouse promoter was identified and it was shown using ChIP assays that serotonin decreased binding of CREB to this promoter (FIG. 9B). These two observations raise the hypothesis that CREB could be mediating serotonin action on osteoblasts.\n(§2) Osteoblasts were treated in serum-free medium with vehicle or Serotonin (50 to 100 μM, Sigma) for 24 hr. Total RNA were extracted with Trizol (Invitrogen). cDNA were generated using the ABI Reverse transcriptase system and random hexanucleotide primers. Real-time PCR was performed using superarray primers on a Stratagene real time PCR cycler and Actin expression was used as endogenous control. Chromatin immunoprecipitation assays (ChIP) were performed by standard procedures using primary osteoblasts. Microarray analysis was performed as described previously (Glass et al., 2005, Dev. Cell 8:751-764)."}, "CREB": {"tested_on": "CREB", "experiment": "Western blot analysis of CREB phosphorylation in primary osteoblasts treated with serotonin", "assay_type": "cell-based, mouse", "conditions": "serotonin 50 to 100 μM", "procedure": "as §1\nOsteoblasts were treated in serum-free medium with vehicle or Serotonin (50 to 100 μM, Sigma) for 24 hr. Lysates from primary osteoblasts or crushed frozen bones were prepared in RIPA buffer in the presence of protease and phosphatase inhibitors. Twenty to 60 μg of proteins were separated by SDS-PAGE in reducing conditions and transferred on nitrocellulose membrane using standard protocols. Membranes were incubated with primary antibodies including total or anti-Phospho CREB (Cell Signaling Technology)."}, "primary osteoblasts": {"tested_on": "primary osteoblasts", "experiment": "Real-time PCR analysis of cyclin and osteoblast-specific gene expression in primary osteoblasts treated with serotonin", "assay_type": "cell-based, mouse", "conditions": "serotonin 50 to 100 μM, 24 hr, vs vehicle", "procedure": "To test whether serotonin regulates the expression of cyclins in osteoblasts, a real-time PCR analysis of cyclin expression in primary osteoblasts treated with serotonin or vehicle was performed. […] In contrast, expression of Runx2, Osteocalcin and Type I collagen was not modified (FIG. 8B).\nCalvaria osteoblasts were extracted by triple collagenase/trypsine digestion from 4 day-old CD1 pups and differentiated with ascorbic acid as previously described (Ducy et al., 2000, Cell 100:197-207).\nas §2"}, "5-HT1B receptor": {"biological_target": "5-HT1B receptor (Homo sapiens, UniProt P28222)", "sequence (P28222 whole entry)": "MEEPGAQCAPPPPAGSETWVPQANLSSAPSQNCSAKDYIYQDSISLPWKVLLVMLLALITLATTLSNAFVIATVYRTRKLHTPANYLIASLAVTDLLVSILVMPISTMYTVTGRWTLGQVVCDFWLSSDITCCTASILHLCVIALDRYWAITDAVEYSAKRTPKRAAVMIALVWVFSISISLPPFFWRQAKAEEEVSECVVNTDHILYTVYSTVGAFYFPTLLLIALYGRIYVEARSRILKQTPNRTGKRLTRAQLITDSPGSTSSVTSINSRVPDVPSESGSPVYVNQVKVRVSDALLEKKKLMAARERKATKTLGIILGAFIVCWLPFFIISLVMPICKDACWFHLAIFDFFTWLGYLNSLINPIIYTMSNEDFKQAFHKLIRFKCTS", "conditions": "selective 5-HT1B receptor antagonist; British Journal of Pharmacology (2003) 138, 71-80; cited from earlier work"}},
  "note": "“Also recorded” adds a separate entry of the source. Structures can show the parent of a compound that is named as a salt.",
  "data": [
    {"molecule": "O=C(c1ccc(F)cc1)C1CCN(CCn2c(=O)[nH]c3ccccc3c2=O)CC1", "note": "[ketanserin]", "values": [
      {"measurement": "mode of antagonism at rb 5-HT1B receptors", "setting": "rb 5-HT1B receptors", "value": "silent, competitive antagonists"}
    ]},
    {"molecule": "NC(Cc1ccc(Cl)cc1)C(=O)O", "note": "(stereo not drawn) [pCPA, para-chlorophenylalanine]", "values": [
      {"measurement": "gut TPH1 mRNA", "setting": "Lrp5−/− mice; Lrp5−/− mice", "value": "normalization"},
      {"measurement": "bone abnormalities (bone histomorphometry)", "setting": "Lrp5−/− mice; Lrp5−/− mice, 300 mg/kg", "value": "corrects bone abnormalities; also recorded: corrects their low bone phenotype; also recorded: corrected the bone abnormalities"},
      {"measurement": "serum serotonin levels", "setting": "Lrp5−/− mice; Lrp5−/− mice, 300 mg/kg", "value": "normalizes; also recorded: normalization"},
      {"measurement": "bone mass", "setting": "Lrp5−/− mice; WT mice", "value": "without overtly affecting bone mass"},
      {"measurement": "Brain TPH2 mRNA levels", "setting": "Lrp5−/− mice; treated mice", "value": "not affected"}
    ]},
    {"molecule": "NCCc1c[nH]c2ccc(O)cc12", "note": "[serotonin, 5-hydroxytryptamine]", "values": [
      {"measurement": "binding of CREB to the Cyclin D1 promoter (ChIP)", "setting": "Cyclin D1 mouse promoter", "value": "decreased"},
      {"measurement": "CREB phosphorylation", "setting": "CREB", "value": "significantly decreased"},
      {"measurement": "expression of Cyclin D1", "setting": "primary osteoblasts", "value": "decreased"},
      {"measurement": "expression of Cyclin D2", "setting": "primary osteoblasts", "value": "decreased"},
      {"measurement": "expression of Osteocalcin", "setting": "primary osteoblasts", "value": "not modified"},
      {"measurement": "expression of Runx2", "setting": "primary osteoblasts", "value": "not modified"},
      {"measurement": "expression of Type I collagen", "setting": "primary osteoblasts", "value": "not modified"}
    ]},
    {"molecule": "CN(C)CCCc1cc(C(=O)Nc2ccc(-c3ccncc3)cc2)ccc1O", "note": "[GR 55562, 3-[3-(dimethylamino)propyl]-4-hydroxy-N-[4-(4-pyridinyl)phenyl]benzamide dihydrochloride]", "values": [
      {"measurement": "Kb", "setting": "5-HT1B receptor", "value": "~100", "unit": "nM"}
    ]},
    {"molecule": "CSc1ccc2c(c1)C(N1CCN(C)CC1)Cc1ccccc1S2", "note": "(stereo not drawn) [methiothepin]", "values": [
      {"measurement": "mode of antagonism at rb 5-HT1B receptors", "setting": "rb 5-HT1B receptors", "value": "silent, competitive antagonists"}
    ]}
  ]
}
